According to patent publication US7872002B2, “Therapeutic pyrazoloquinoline derivatives” (Helicon Therapeutics, Inc., priority 2007, dated 2011):
pIC50: −log10 of the molar value.

Target: GABAA central benzodiazepine receptor
Assay: Benzodiazepine Binding Assay ((3H)-flunitrazepam, rat whole brain except cerebellum)
Conditions: read-out: BZ binding assay (IC50); 1 nM (3H)-flunitrazepam, 60 minutes at 25° C., pH 7.4; with or without 30 μM GABA

pIC50	SMILES
6.00 to 9.00	O=c1c2c[nH]c3c(N4CCOCC4)cc(N4CCOCC4)cc3c-2nn1-c1ccccc1 [Compound 58a, 6,8-Bis(morpholin-4-yl)-2-phenyl-2,5-dihydro-pyrazolo[4,3-c]quinolin-3-one]
6.00 to 9.00	CC(C)N1CCN(c2cc(N3CCN(C(C)C)CC3)c3[nH]cc4c(=O)n(-c5ccccc5)nc-4c3c2)CC1 [Compound 58b, 6,8-Bis(4-iso-propylpiperazin-1-yl)-2-phenyl-2,5-dihydro-pyrazolo[4,3-c]quinolin-3-one]
